The text below walks through data of patent US10413583B2, “Synthetic substrates for enzymes that catalyze reactions of modified cysteines and related methods” (The University of Chicago, priority 2016, dated 2019).

This experiment deals with HEK293T cells. The experiment can be described thus: Fluorescence imaging of RDP-1 and RDP-2 with HEK293T cells. As to conditions: for change in depalmitoylation activity from RDP-1: 10 μM inhibitor 30 min. Type of experiment: cell-based, human. The method, then: HEK293T were plated with […] of DMEM (Gibco, Gaithersburg, Md., United States of America; High Glucose, Glutamax, 10% FBS) a four well chambered imaging dish (D35C4-20-1.5-N, Cellvis, Mountain View, Calif., United States of America) which were precoated with 4 μg Poly-D-lysine (30-70 kilodalton (KDa), Alfa Aesar, Haverhill, Mass., United States of America) for 2 h at room temperature or overnight at 4° C. and grown to ca. 80% confluence prior to imaging. 30 min before the addition of the RDP, the cell culture media was removed and cells were washed with 500 μL of serum-free DMEM (Gibco, Gaithersburg, Md., United States of America, High Glucose, Glutamax, no FBS). The media was then replaced with 500 μL of serum-free DMEM containing 100 nM Mitotracker Deep Red (Thermo Fisher Scientific, Waltham, Mass., United States of America; to assist in focusing and processing) and either 0.1% DMSO carrier as a control or Palm B, ML348, or ML349 in DMSO and incubated for 30 min at 37° C. and 5% CO2. The media was removed, the cells were washed with 500 μL of Live Cell Imaging Solution (Thermo Fisher Scientific, Waltham, Mass., United States of America), and 500 μL of 1 μM RDP-1 or RDP-2 along with the appropriate inhibitor or DMSO as control in Live Cell Imaging Solution was added to each well. After incubation for 10 min at 37° C. and 5% CO2, the cells were washed with 500 μL Live Cell Imaging Solution and 500 μL of Live Cell Imaging Solution containing DMSO or the appropriate inhibitor was added to the cells immediately before images were obtained on an inverted epi-fluorescence microscope (Olympus IX83; Olympus Corporation, Tokyo, Japan) attached with EMCCD camera (Photometrics EVOLVE™ Delta; Photometrics, Tucson, Ariz., United States of America) with 40× oil objective (N/A 1.3) for RDP-1 (excitation filter 1 430/24 nm, dichroic chroma 89007, emission filter 1 470/24 nm, exposure time 100 ms, EM gain 80, excitation filter 2 480/20 nm, dichroic chroma 49014, emission filter 2 575/40 nm, exposure time 70 ms, EM gain 50) or for RDP-2 (excitation filter 1 430/24 nm, dichroic chroma 89007, emission filter 1 470/24 nm, exposure time 70 ms, EM gain 50, excitation filter 2 480/20, dichroic chroma 49014, emission filter 2 575/40 nm, exposure time 50 ms, EM gain 30), brightfield (exposure time 50 ms, EM gain 30), and MitoTracker Deep Red: (excitation filter 640/30 nm, emission filter 705/72 nm, dichroic chroma 89016, exposure time 15 ms, EM gain 15). Analyses were performed in ImageJ as described below. Each experiment was repeated at least three separate times with identical results.
The probe channel data were expressed as a ratio of the blue channel divided by the green channel and normalized to the average fluorescence intensity of the control conditions. To eliminate errors from autofluorescence, the images were thresholded using the bluer channel images at the same minimum level that included the maximum number of cells in focus (as determined visually by the mitocondrial dye) while limiting the signal from areas where cells are not present. The average value of all nonzero pixels from the blue channel:green channel ratio image were calculated in ImageJ for three different measurements from each experiment. The percent deprotected was estimated by imaging RDP-1/2 in buffer (20 mM HEPES, 150 mM NaCl, 0.1% Triton X-100, pH 7.4, 0.1% DMSO) and for dye deprotected with 20 mM DTT in buffer (20 mM HEPES, 150 mM NaCl, 0.1% Triton X-100, pH 7.4, 0.1% DMSO) for 1 h at room temperature before aliquoted into individual tubes and stored at −80° C. A fresh aliquot of the solution was thawed for each experiment and diluted to 250 nM (RDP-1) or 500 nM (RDP-2) in buffer (20 mM HEPES, 150 mM NaCl, 0.1% Triton X-100, pH 7.4, 10 mM DTT) and allowed to equilibrate for 30 m before being imaged. […]

`O=C(CN1CCN(C(=O)c2ccco2)CC1)Nc1cc(C(F)(F)F)ccc1Cl` [ML348]: the “decrease in depalmitoylation activity, RDP-2” value (5 μM ML348 30 min, 1 μM RDP-2) is on record as “about 30%”. Moreover, where the note is “1 μM RDP-1”, the “change in depalmitoylation activity from RDP-1” value is given as “slight increase”.

`COc1ccc(N2CCN(C(=O)c3cc4c(s3)-c3ccccc3S(=O)(=O)C4)CC2)cc1` [ML349]: the “increase in depalmitoylation activity, RDP-2” value (5 μM ML349 30 min, 1 μM RDP-2) is “about 12%”. Further, the “change in depalmitoylation activity from RDP-1” value (1 μM RDP-1) was “slight increase”.

Consider `CCCCCCCCCC[C@@H]1C(=O)O[C@H]1CCc1ccc(OC)c(OC)c1` [PalmB, palmostatin B], for which the “decrease of measured depalmitoylation activity, RDP-1” value (20 μM PalmB 30 min pretreatment, 1 μM RDP-1) is “almost in half”. Moreover, the “decrease of measured depalmitoylation activity, RDP-2” value (20 μM PalmB 30 min pretreatment, 1 μM RDP-2) was “almost in half”.
